Measured values taken from paper PMC9255995 (Oncotarget, 2022).

Assays:
[1] = system: pRb (Ser780) in MDA-MB-453 cells; assay: pRb (Ser780) high content imaging cellular assay, CDK4-dependent MDA-MB-453; assay type: cell-based; conditions: Homo sapiens, CDK4-dependent cell line, n = 4, read-out: pRb (Ser780) Cellular assays IC50 MDA-MB-453
Method: (§1) Intracellular phosphorylation of Rb in its residue 780 (Ser780) was measured using fluorescently labeled phospho-specific antibodies and high content imaging. […]
(§2) The mean fluorescence intensity, (Thermo Fisher P3566) dilution in PBS was added for 1 h or median of fluorescence (MFI), was calculated, and at RT. Fluorescence plates were scanned with ACUMEN compared for individual well and condition. EXPLORER™ monitoring Alexa Fluor 488 and PI signals Cell cycle was analyzed using a Ki67/PI protocol. using 488nm wavelength. […]
(§3) (Immunostep, PI/RNASE) for 15 min at RT in the dark. and representation of final readouts. JMP (Statistical […]
(§4) pRb Ser780 – high content imaging cell-based was incubated with an antibody against Annexin V. After assay [previously described in Torres-Guzmán et al. 10 minutes of incubation in dark, cells were washed twice (2017)] using Annexin buffer V. Finally, cells were analyzed using MDA-MB-453 (CDK4-dependent) and NCI-H1568 the flow cytometer where PI (1:100) was automatically (CDK6-dependent) cells were seeded at a density of 5 000 added. The percentage of cells at the different phases of and 3 000 cells per well, respectively, in 96-well plates. apoptosis was represented (PI–/Annexin V- for Alive cells, Between 14–24 h after seeding, cells were treated with PI–/Annexin V+ for Early apoptotic cells, PI+/Annexin […]
(§5) V+ for Late apoptotic cells and PI+/Annexin V– for Dead
(§6) Compounds were provided as 10mM stock in 100% cells).
(§7) DMSO and were further diluted to achieve the desired Senescence final concentration (DMSO 0.2%). For fluorescent detection of β-galactosidase, cells After treatment with compounds, the cells were washed with PBS 1X and fixed using 2% PFA incubated at 37°C and 5% CO2 for 4h before being (Acros organics, 119690010) for 10 minutes. Then, cells washed once with PBS and adding 100 μl of fresh media. were washed using PBS+1%BSA and incubated with the […]

[2] = system: pRb (Ser780) in NCI-H1568 cells; assay: pRb (Ser780) high content imaging cellular assay, CDK6-dependent NCI-H1568; assay type: cell-based; conditions: Homo sapiens, CDK6-dependent cell line, n = 4, read-out: pRb (Ser780) Cellular assays IC50 NCI-H1568
Method: as §1
as §2, with “using the flow cytometer (gated on single and alive RNase A (Sigma R6513) and Propidium Iodide (PI) cells subpopulations). The mean” for “The mean”
as §3, §4, §5, §6, §7

[3] = system: pRb (Ser780) in MDA-MB-453 cells; assay: pRb (Ser780) washout experiment in MDA-MB-453; assay type: cell-based; conditions: Homo sapiens
Method: as §2, with “using the flow cytometer (gated on single and alive RNase A (Sigma R6513) and Propidium Iodide (PI) cells subpopulations). The mean” for “The mean”
Next, cells were washed, Raw data were analyzed with FlowJo 10.6 software. and the cell pellet was incubated with PI/RNase A Graph Pad v8.4.3 software was used for data analysis (Immunostep, PI/RNASE) for 15 min at RT in the dark. and representation of final readouts. JMP (Statistical Cells were analyzed using the flow cytometer (gated for Discovery from SAS) was used for the statistical treatment debris exclusion and single cells). A minimum of 5 000 (ANOVA, pair-wise analysis) of the data. […]
All data were analyzed using FlowJo 10.6 and Graph Pad […]
as §4, §5, §6, §7

pRb in MDA-MB-231 cells = assay: Inhibition of pRb in breast cancer cell line MDA-MB-231; assay type: cell-based; conditions: Homo sapiens, 16 hours
pRb in MCF-7 cells = assay: Inhibition of pRb in breast cancer cell line MCF-7; assay type: cell-based; conditions: Homo sapiens, MCF7; 16 hours
pRb in BT474 cells = assay: Inhibition of pRb in breast cancer cell line BT474; assay type: cell-based; conditions: Homo sapiens, BT-474; 16 hours
[4] = system: pRb in MDA-MB-175 VII cells; assay: Inhibition of pRb in breast cancer cell line MDA-MB-175 VII; assay type: cell-based; conditions: Homo sapiens, 16 hours
pRb in EFM-19 cells = assay: Inhibition of pRb in breast cancer cell line EFM-19; assay type: cell-based; conditions: Homo sapiens, 16 hours
pRb in MDA-MB-361 cells = assay: Inhibition of pRb in breast cancer cell line MDA-MB-361; assay type: cell-based; conditions: Homo sapiens, 16 hours
pRb in MDA-MB-134 cells = assay: Inhibition of pRb in breast cancer cell line MDA-MB-134; assay type: cell-based; conditions: Homo sapiens; 16 hours
pRb in HCC70 cells = assay: Inhibition of pRb in breast cancer cell line HCC70; assay type: cell-based; conditions: Homo sapiens, 16 hours
[5] = Viability of isolated mature neutrophils from human whole blood (Annexin V/PI); assay type: cell-based
Method: Human whole blood was obtained from six healthy donors who previously provided written informed consent. Mature neutrophils were isolated from human whole blood, using a negative-selection technique (MACSxpress isolation kit, Miltenyi 130-104-434). CD16 cell surface expression (Miltenyi, 130-113-396) was used as quality control; only samples with yield > 95% passed QC. CD34+ human bone marrow primary progenitor cells were obtained from Tebu bio (BM34C-4).
Mature neutrophils were plated in a 96-well plate (60K cells per well) in 100 μl RPMI 1640 (Invitrogen), 10% hiFBS (Fisher) and 1% Pen/Strep (Invitrogen).
Neutrophils were plated in a 96-well plate (60K cells/well) in the above-mentioned cell medium. A 10 mM stock of each CDK4 & 6i was used to make ten-point 1:3 serial dilutions in 100% DMSO; multiple dilution steps were used to reach the concentration in the assay: 10 μM, 0.1% DMSO. Non-treated cells (0.1% DMSO) and roscovitine (20 μM) were used as controls. Neutrophils were incubated for 6 h. Following treatment, cells were washed with FACS flow (BD, 342 003), and supernatant was removed. The cell pellet was stained with Annexin V-FITC antibody for 10 min in the dark. Cells were washed with Annexin buffer, centrifuged at 300 G for 5 min, supernatant was discarded, and cell pellet was resuspended in 100 μl of Annexin buffer and analyzed by flow cytometry. PI 1:200 was added automatically by the cytometer. All incubations occurred at 37°C, 5% CO2.
The percentage of alive, early apoptosis, late apoptosis, and dead cells was monitored using the Annexin V/PI assay. Cells were incubated with an anti-human Annexin V-FITC antibody, binding specifically to phosphotidylserine (PS), for 10 min in the dark. PS redistributes to the outer part of the cell membrane in an early stage of apoptosis; in late apoptotic cells, as the cell membrane loses its integrity, both PS and PI can be detected. […]

T47D cells = assay: T47D continuous dosing, apoptosis by Annexin V/PI flow cytometry; assay type: cell-based, human; conditions: after 8 days of continuous dosing
Method: T47D cells were seeded in six-well plates (50 000 cells/well) in 2 ml of cell medium (10% hiFBS [Fisher] and 1% Pen/Strep [Invitrogen]). […] Non-treated cells (0.04% DMSO) and staurosporine 1 μM were used as controls for minimum and maximum inhibition controls respectively. […] Cells were then detached using trypsin and transferred to the deep well plate and spun at 1 300 rpm for 5 min. Cell pellet was washed using PBS1X and plated for apoptosis measurement (Annexin V/PI), using the procedure described above (mature neutrophils). All cells were gated on FSC/SSC to exclude debris and doublets.

[6] = system: Rb1-deficient breast cancer cell lines; assay: Breast cancer cell panel proliferation (nuclei count); assay type: cell-based, human; conditions: two doublings
Method: A panel of 37 BC cell lines (see Supplementary Table 3 for details) was obtained from the American Type Culture Collection (ATCC, Manassas, Virginia, USA 30-4500 K) or the German Collection of Microorganisms and Cell Cultures GmbH (DSMZ). Cells were cultured according to ATCC or DSMZ recommendations for fewer than ten passages. Cells were seeded in 96 or 384-well plates and incubated overnight prior to treatment.
Cells were plated at 1,000 or 2,000 cells per well in 384-well plates in a total volume of 25 μl of either growth media alone; with 2 μM staurosporine; or with decreasing concentrations of test compounds with a range 20 μM–1 nM. Test compounds were prepared in 100% DMSO using a dilution factor of 1:3 before addition to the cells pre-diluted in growth media. Cells were incubated at 37°C until the untreated cells had doubled twice. Cells were fixed with 70% ethanol, treated with RNAse and nuclei stained with Propidium Iodide (PI). Cell nuclei per well were counted using an ACUMEN EXPLORER™ (STP LABTECH LTD) to determine the number of cells remaining after treatment. […]
were thawed and resuspended in IMDM, 10% hiFBS […]
by curve, slope = steepness of curve at IC50. IC50: 558385), anti-CDK4 antibody (Abcam ab75511) and anti- […]
(ligand binding, enzyme response) by 50%. Fujifilm LAS4000. Actin (Sigma A5441) was used as a %Inh = [(median Max- x/ median Max – median loading control. […]
model were plotted as Geometric means in a waterfall plot using knime workflows. […]
containing 200 μg/ml Ribonuclease A (Sigma R6513).
To monitor senescence, cells […]
treated cells. The same procedure was also followed to instructions. […]
process. was removed. Cell pellet was incubated with Annexin […]
treated controls. […] Cells were analyzed […]
antibodies against CD13-FITC and CD11b-PE. After 10 exclusion and singlets selection). A minimum of 5000 […]
and supernatant was discarded. Cells were resuspended in (Alive). AnnexinV+/PI– (Early apoptosis), Annexin+/PI+ buffer for acquisition in flow cytometer. […]
cytometer (488-nm laser and 585/40nm filter). […] Finally, cells were washed and analyzed

CDK4/CyclinD1 = CDK4/CyclinD1 (Homo sapiens, UniProt P11802); conditions: cell-free assay, KiATP
Method: Compounds were mixed with substrate mix (C-terminal retinoblastoma fragment [CTRF] peptide and ATP/33-P ATP) at a final concentration range of 2 μM–0.1 nM. The mix was incubated for 90 min at RT and the reaction was then stopped by adding 80 μl of 10% ortho-Phosphoric acid. The mix was next transferred to Multiscreen filter plates (Millipore) to retain phosphorylated peptide. The plates were read in a Microbeta Trilux instrument. Reaction mix with excess of EDTA was used as assay “bottom signal”; complete reaction mix without the inhibitor/compound was used as assay “top signal”.
For IC50 determination, results were fitted to a four-parameter dose-response curve using the following equation:
For the ATP saturation studies Ki and K’i parameters were estimated using the formula:
V=Vmax[S]/[Km(1+[I]/Ki)+[S](1+[I]/Ki')]

[7] = read-out: relative IC50 for pRb (Ser780) reduction, 12 h after compound removal, MDA-MB-453, 4 h treatment then 12 h washout
[8] = MDA-MB-453, 4 h treatment, before compound removal, read-out: relative IC50 for pRb (Ser780) reduction, treatment phase

Chain of CDK4/CyclinD1 (P11802 whole entry): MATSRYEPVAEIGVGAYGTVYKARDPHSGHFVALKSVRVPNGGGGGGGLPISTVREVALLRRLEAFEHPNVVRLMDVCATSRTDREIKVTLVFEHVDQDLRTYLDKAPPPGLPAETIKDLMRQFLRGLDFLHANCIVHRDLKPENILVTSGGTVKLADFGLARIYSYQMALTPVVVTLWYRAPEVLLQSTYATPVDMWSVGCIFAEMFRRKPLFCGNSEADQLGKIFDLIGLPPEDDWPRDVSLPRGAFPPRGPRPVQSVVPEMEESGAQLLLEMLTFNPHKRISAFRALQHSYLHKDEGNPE
Chain of CDK4/CyclinD1 (P24385 whole entry partner): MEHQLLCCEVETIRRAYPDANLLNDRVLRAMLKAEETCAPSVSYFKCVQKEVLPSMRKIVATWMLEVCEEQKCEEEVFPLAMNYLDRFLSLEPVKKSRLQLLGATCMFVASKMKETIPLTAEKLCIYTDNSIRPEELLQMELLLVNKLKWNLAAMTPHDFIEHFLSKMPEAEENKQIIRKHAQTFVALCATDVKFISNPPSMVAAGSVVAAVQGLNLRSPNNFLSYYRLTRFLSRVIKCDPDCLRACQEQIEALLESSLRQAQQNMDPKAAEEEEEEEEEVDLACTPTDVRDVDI

IC50 [1] | IC50 [2] | IC50 [3, 7] | IC50 [3, 8] | IC50 (pRb in MDA-MB-231 cells) | IC50 (pRb in MCF-7 cells) | IC50 (pRb in BT474 cells) | IC50 [4] | IC50 (pRb in EFM-19 cells) | IC50 (pRb in MDA-MB-361 cells) | IC50 (pRb in MDA-MB-134 cells) | specificity for CDK4/Cyclin D1 over CDK6/Cyclin D3 complexes (CDK4/CyclinD1) | SMILES | IC50 (pRb in HCC70 cells) | viability at 6 h [5] | percentage in total apoptotic and dead cells (T47D cells; 50 nM) | percentage in total apoptotic and dead cells (T47D cells; 100 nM) | activity in Rb1-deficient cell lines (proliferation) [6]
23 nM | 63 nM | 447 nM | 14.1 nM | 16.1 ± 7.6 nM | 25.6 ± 14 nM | 11.5 ± 5.5 nM | 18.9 ± 4.7 nM | 11 ± 0.6 nM | 14.6 ± 2.1 nM | 20.5 ± 8.2 nM | – | CC(=O)c1c(C)c2cnc(Nc3ccc(N4CCNCC4)cn3)nc2n(C2CCCC2)c1=O [Palbociclib, palbociclib] | > 6000 nM | 82.9% | 13.2% | 18.7% | inactive
53 nM | 554 nM | – | – | 71.5 ± 26.5 nM | 116 ± 78.5 nM | 34 ± 26.7 nM | 115 ± 80.9 nM | 31 ± 3.6 nM | 54.2 ± 13.8 nM | 60 ± 19.7 nM | – | CN(C)C(=O)c1cc2cnc(Nc3ccc(N4CCNCC4)cn3)nc2n1C1CCCC1 [Ribociclib, ribociclib] | > 6000 nM | 81.4% | – | – | inactive
7.4 nM | 94 nM | < 100 nM | 6.4 nM | 17.1 ± 4.2 nM | 19.4 ± 7.4 nM | 4.58 ± 2.9 nM | 17.8 ± 2.8 nM | 4.4 ± 1.2 nM | 8.24 ± 1.6 nM | 8.5 ± 0.9 nM | approximately 14 fold | CCN1CCN(Cc2ccc(Nc3ncc(F)c(-c4cc(F)c5nc(C)n(C(C)C)c5c4)n3)nc2)CC1 [Abemaciclib, abemaciclib] | > 6000 nM | 82.5% | 28.1% | 40.7% | inactive
